{"source": "patent US6989270B1", "about": "“Using polyamide nucleic acid oligomers to engender a biological response” (Mayo Foundation for Medical Education and Research, priority 1997, dated 2006)", "key": {"NTR1 mRNA": {"system": "NTR1 mRNA", "experiment": "Quantitative RT-PCR of NTR1 mRNA relative to GAPDH", "type": "in vivo", "settings": "treated intracranially, 5 μg; at 8 hours", "procedure": "(§1) Messenger RNA (mRNA) levels for NTR1, MU1R, and GAPDH were measured in control and PNA-treated animals. Briefly, total RNA was isolated from approximately 20 mg of tissue using the S.N.A.P. total RNA Isolation Kit (Invitrogen, Carlsbad, Calif.). Quantitative RT-PCR was performed on treated and control animals using GAPDH as an internal standard and PCR fragments of the human NTR and of a GAPDH deletion mutant as exogenous standards. First strand cDNA was synthesized from approximately 500 ng of total RNA using the cDNA Cycle Kit (Invitrogen, Carlsbad, Calif.). PCR was performed on a GeneAmp PCR System 9600 (Perkin Elmer, Norwalk, Conn.) using end-labeled primer and TAq DNA Polymerase (Gibco-BRL, Gaithersburg, Md.). Products were separated on a 5% acrylamide gel containing 7 M urea, and detected using a Storm860 Phosphoimager (Molecular Dynamics, Sunnyvale, Calif.). Data were analyzed using ImageQuant Software (Molecular Dynamics, Sunnyvale Calif.). To control for any diurnal mRNA level fluctuations that may occur, the PNA injection time was controlled such that the tissue harvest time was identical in each animal group."}, "MU1R mRNA": {"system": "MU1R mRNA", "experiment": "Quantitative RT-PCR of MU1R mRNA relative to GAPDH", "type": "in vivo", "settings": "treated intracranially, 5 μg", "procedure": "as §1"}, "[1]": {"system": "neurotensin receptor-1 (NTR1)", "experiment": "Hot plate test of NT-mediated anti-nociception in PNA-treated rats", "type": "in vivo, rat", "procedure": "Under an Institutional Animal Care and Use Committee approved protocol and under sterile conditions male Sprague-Dawley rats (180-200 g) were stereotaxically implanted with stainless steel guide cannulae (26 gauge) into the PAG under sodium pentobarbital anesthesia (50 mg/kg, i.p.) as described in detail elsewhere (Jensen T. S. and Yaksh T. L., Brain Res. 372:301-312 (1986) and Al-Rodhan N.R.F., Brain Res. 557:227-235 (1991)). The coordinates used for PAG cannulations are -5.6 mm posterior from bregma, 1.0 mm lateral from bregma, and 5.5 mm down from the dura. The guide cannula was pre-measured to be 5.5 mm (Plastics One, Roanoke, Va.) and the internal cannula was ordered to fit below the pedestal with a 2.0 mm projection. The guide cannula was then fixed to the skull using a stainless steel screw (⅛ inch) and cranioplastic cement. A stainless steel stilette was then placed in each guide to keep it patent and free of debris. Immediately after surgery, the animals were allowed to recover before returning them to an individual housing cage. All injections began 5-7 days after surgery.\nNTR1-PNA oligomers were injected, using a Hamilton digital syringe, into the PAG through the internal cannula, which extended 2 mm below the guide tip. The internal cannula was connected with a length of polyethylene tubing (PE-20) filled with saline solution. A small air bubble was introduced into the tubing to separate the saline from a solution containing 1.3 nmol of NTR1-PNA oligomers in artificial cerebral-spinal fluid (ACSF). The volume of the solution containing the NTR1-PNA oligomers was about 1.0 μl. The bubble was used to confirm the movement of this solution through the polyethylene tubing.\nNTR1-PNA oligomers were injected into the PAG of each rat three times, on days -4, -2, and 0. Controls included rats receiving no injections, rats receiving injections of ACSF only, and rats receiving PNA oligomers having sequence specificity for an unrelated polypeptide, the mu-1 morphine receptor (MU1R). The sequence of MU1R-PNA is 5′-[…]-3′ (SEQ ID NO: 2).\nThe injection of NT in the PAG of rats produces a potent anti-nociceptive response as well as hypothermia. These responses are mediated by specific NT receptors and are not inhibited by naloxone. A very sensitive and reliable hot plate test was used to measure the anti-nociceptive effects of NT (Al-Rodhan N.R.F., Brain Res. 557:227-235 (1991)).\nNTR1-PNA, MU1R-PNA, and ACSF treated as well as untreated rats were analyzed using the hot plate test for NT. One day after the last treatment, each rat was analyzed as follows. Fifteen minutes prior to testing, a pre-drug latency measurement was made by placing the rat on a hot plate maintained at a temperature of 52±0.15° C. and recording the time elapsed before the rat licked either of its hindpaws. In addition, the temperature of the rat was taken using a thermister probe inserted 3 cm in the rectum to determine the pre-drug body temperature (BT). After making these measurement, an appropriate dose of NT (18 nmol) at a volume of about 0.5 ul was administered into the PAG as described above. Thirty minutes after administering NT, the rat was again placed on a hot plate maintained at a temperature of 52±0.15° C. and the latency between the time the rat was placed on the surface and the time it licked either of its hindpaws was measured. […] Hot plate tests were scored as the percent of maximum possible effect (% MPE) and calculated using the following equation: % MPE=[(post-drug latency−pre-drug latency)/(cut-off−pre-drug latency)]×100; where the cut-off is 30 seconds. […] This average for untreated control rats was used to set the baseline MPE value to 100. Immediately after the 30 second hot plate test, BT was taken to measure NT-induced hypothermia using a thermister probe inserted 3 cm in the rectum. […] All test situations were compared to these baseline values derived from NT responsive untreated controls. […]"}, "[2]": {"system": "neurotensin receptor-1 (NTR1)", "experiment": "NT-induced hypothermia (rectal body temperature) in PNA-treated rats", "type": "in vivo, rat", "settings": "for body temperature change in response to NT: NT 18 nmol 24 hours later", "procedure": "NTR1-PNA, MU1R-PNA, and ACSF treated as well as untreated rats were analyzed using the hot plate test for NT. One day after the last treatment, each rat was analyzed as follows. Fifteen minutes prior to testing, a pre-drug latency measurement was made by placing the rat on a hot plate maintained at a temperature of 52±0.15° C. and recording the time elapsed before the rat licked either of its hindpaws. In addition, the temperature of the rat was taken using a thermister probe inserted 3 cm in the rectum to determine the pre-drug body temperature (BT). After making these measurement, an appropriate dose of NT (18 nmol) at a volume of about 0.5 ul was administered into the PAG as described above. Thirty minutes after administering NT, the rat was again placed on a hot plate maintained at a temperature of 52±0.15° C. and the latency between the time the rat was placed on the surface and the time it licked either of its hindpaws was measured. […] Hot plate tests were scored as the percent of maximum possible effect (% MPE) and calculated using the following equation: % MPE=[(post-drug latency−pre-drug latency)/(cut-off−pre-drug latency)]×100; where the cut-off is 30 seconds. […] This average for untreated control rats was used to set the baseline MPE value to 100. Immediately after the 30 second hot plate test, BT was taken to measure NT-induced hypothermia using a thermister probe inserted 3 cm in the rectum. […] All test situations were compared to these baseline values derived from NT responsive untreated controls.\n(§2) AS-NTR1-PNA, mismatch-AS-NTR1-PNA, and MU1R-PNA were injected intraperitoneally (10 mg/kg) independently, into separate groups of male Sprague-Dawley rats (Harlan, Prattville, Ala.). The sense-NTR1-PNA oligomer, however, was microinjected directly into the periaqueductal gray (PAG; 5 μg), the major area in the brain involved with perception of pain (nociception). […] Thirty minutes after receiving NT, animals were scored for anti-nociception (hot plate at 52° C.) and hypothermia (rectal probe). Again, anti-nociception scores were calculated as percent of maximum possible effect (% MPE) with the following equation: % MPE=[(post-drug latency time minus pre-drug latency time)/(cut-off time minus pre-drug latency time)]×100; where the cut-off time (i.e., the time when the animal was removed from the device) was 30 seconds for a hot plate test and 12 seconds for a tail flick test. Statistical analysis was done using the rank sum test."}, "mu-1 receptor (MU1R)": {"system": "mu-1 receptor (MU1R)", "experiment": "Tail flick test of MOR-mediated anti-nociception in PNA-treated rats", "type": "in vivo, rat", "procedure": "The injection of MOR into rats produces a potent anti-nociceptive response. This response is mediated by specific MOR receptors and is inhibited by naloxone. A very sensitive and reliable tail flick test was devised and used to measure the anti-nociceptive effects of MOR (D'Amour F. E. and Smith D. L, J. Pharm. Exp. Therap. 72:74-79 (1941)).\nMU1R-PNA, NTR1-PNA, and ACSF treated as well as untreated rats were analyzed using the MOR-specific tail flick test. One day after the last treatment, each rat was analyzed as follows. Thirty minutes prior to testing, a pre-drug latency measurement was made by placing the tail of the restrained rat in oil maintained at a temperature of 60° C. and recording the time elapsed before the rat flicked its tail. After making this measurement, an appropriate dose of MOR (5 mg/kg of body weight) at a volume of about 200 μl was injected i.p. Thirty minutes after administering MOR, the restrained rat's tail was again placed in the oil maintained at 60° C. and the latency between the time the tail was placed in the oil and the time the rat flicked its tail was measured. […] Tail flick tests were scored as the percent of MPE and calculated using the following equation: % MPE=[(post-drug latency−pre-drug latency)/(cut-off−pre-drug latency)]×100; where the cut-off is 12 seconds. […] This average for untreated control rats was used to set the baseline A MPE value to 100. All test situations were compared to this baseline response value derived from MOR responsive untreated controls. To test the significance, data were analyzed using the Student's t-test with p<0.05 being considered significant.\nas §2"}, "[3]": {"system": "plasma membrane serotonin transporter", "experiment": "Hyperactivity (activity chamber) after tranylcypromine challenge", "type": "in vivo, rat", "settings": "5 mg/kg i.p., then 15 mg/kg TCP 48 hours later", "description": "To test the ability of SERT-PNA oligomers to engender a biological response, e.g., a reduction of plasma membrane serotonin transporter expression, SERT-PNA oligomers were administered to rats with and without tranylcypromine (TCP), a MAO inhibitor.\nA solution containing 5 mg/kg of SERT-PNA oligomers in saline was injected directly into the peritoneal cavity of male Sprague-Dawley rats (200-250 g). Each rat received a single injection on day zero and the volume injected was about 200 μl. Controls included rats receiving injections of saline only and injections of TCP only.\nTo monitor hyperactivity, an Opto-Varimex-Minor activity chamber (Columbus Instruments, Columbus, Ohio) was used. Briefly, this activity chamber records the number of times an animal disrupts an infrared beam while in a 42 cm by 42 cm chamber. Other signs of hyperactivity were noted by gross observation."}, "[4]": {"settings": "10 mg/kg intraperitoneally, NT 18 nmol into PAG 24 hours later"}, "[5]": {"settings": "PNA injected into PAG on days -4, -2, 0, NT 18 nmol into PAG"}}, "data": [{"substance": "sense-NTR1-PNA: sense PNA oligomer for NTR1, complementary to AS-NTR1-PNA, 5′-GTTTGAGCAATG-3′ (SEQ ID NO:13) (all peptide nucleic acid (PNA); sense control PNA, further chemistry not fully specified)", "values": [{"measurement": "reduction in the NTR1/GAPDH ratio of mRNA", "setting": "NTR1 mRNA", "result": 50, "unit": "%"}, {"measurement": "change in MU1R/GAPDH ratio of mRNA", "setting": "MU1R mRNA", "result": "no change"}, {"measurement": "anti-nociception score (hot plate) after NT", "setting": "[1]; [4]", "result": "5.4±5.4", "unit": "% MPE"}, {"measurement": "anti-nociception score (hot plate) after NT", "setting": "[1]; PNA microinjected into PAG (printed 5% g), NT 18 nmol 24 hours later", "result": 14, "unit": "% MPE"}, {"measurement": "body temperature change in response to NT", "setting": "[2]; 10 mg/kg intraperitoneally", "result": "−0.45±0.15", "unit": "°C"}, {"measurement": "body temperature change in response to NT", "setting": "[2]; PNA into PAG, 5 μg", "result": "−0.5", "unit": "°C"}]}, {"substance": "MU1R-PNA: 14-mer antisense PNA oligomer to mu-1 receptor 5′ non-coding region, 5′-CAGCCTCTTCCTCT-3′ (SEQ ID NO: 2) (all peptide nucleic acid (PNA); further chemistry not fully specified)", "values": [{"measurement": "anti-nociception score (hot plate) after NT", "setting": "[1]; [4]", "result": 82, "unit": "% MPE"}, {"measurement": "MPE (hot plate) response to NT challenge as percent of baseline response", "setting": "[1]; [5]", "result": "indistinguishable from the baseline responses"}, {"measurement": "BT (hypothermia) response to NT challenge as percent of baseline response", "setting": "[2]; [5]", "result": "indistinguishable from the baseline responses"}, {"measurement": "time until which MOR-mediated anti-nociception remained significantly reduced", "setting": "mu-1 receptor (MU1R); PNA injected into PAG on days -4, -2, 0", "result": "day twelve"}, {"measurement": "responsiveness to MOR challenge (tail flick)", "setting": "mu-1 receptor (MU1R); one day after single i.p. injection of 3 mg/kg", "result": "unable to respond to MOR challenge"}]}, {"substance": "mismatch-AS-NTR1-PNA: PNA oligomer like AS-NTR1-PNA with a mismatch at every third base pair, 5′-TATGGCACAGAC-3′ (SEQ ID NO:12) (all peptide nucleic acid (PNA); further chemistry not fully specified)", "values": [{"measurement": "anti-nociception score (hot plate) after NT", "setting": "[1]; [4]", "result": 60, "unit": "% MPE"}, {"measurement": "body temperature change in response to NT", "setting": "[2]; 10 mg/kg intraperitoneally", "result": "−1.3", "unit": "°C"}]}, {"substance": "SERT-PNA: 12-mer antisense PNA oligomer to rat plasma membrane serotonin transporter, 5′-GCCAGATGTTGC-3′ (SEQ ID NO: 3) (all peptide nucleic acid (PNA); further chemistry not fully specified)", "values": [{"measurement": "hyperactivity after TCP", "setting": "[3]", "result": "extreme hyperactivity"}, {"measurement": "time to extreme hyperactivity after TCP treatment", "setting": "[3]", "result": "≤ 10", "unit": "min"}]}]}
